Test results published in patent publication US10000501B2, “Inhibitors of HIF prolyl hydroxylase” (MERCK SHARP & DOHME CORP., priority 2014, dated 2018).

Target: T1, human HIF-PHD2 (Homo sapiens, UniProt Q9GZT9)
T1 construct: FLAG-tagged full length PHD2 expressed in and purified from baculovirus-infected Sf9 cells; FLAG; made in house; host or cells: baculovirus-infected Sf9 cells
Experiment: HIF-PHD2 inhibition assay (hydroxylation of HIF-1α peptide, time resolved fluorescence)
Assay type: biochemical
Details: FLAG-tagged full length PHD2; 0.2 μM 2-oxoglutarate, 0.5 μM HIF-1α peptide
Experimental: To each well of a 384-well plate, 1 μL of test compounds in DMSO (final concentration ranging from 0.3 nM to 10 uM) were added into 20 μl of assay buffer (50 mM Tris pH 7.4/0.01% Tween-20/0.1 mg/ml bovine serum albumin/10 μM ferrous sulfate/1 mM sodium ascorbate/20 μg/ml catalase) containing 0.15 μg/ml FLAG-tagged full length PHD2 expressed in and purified from baculovirus-infected Sf9 cells. […] Purif.

T1 sequence (Q9GZT9 whole entry): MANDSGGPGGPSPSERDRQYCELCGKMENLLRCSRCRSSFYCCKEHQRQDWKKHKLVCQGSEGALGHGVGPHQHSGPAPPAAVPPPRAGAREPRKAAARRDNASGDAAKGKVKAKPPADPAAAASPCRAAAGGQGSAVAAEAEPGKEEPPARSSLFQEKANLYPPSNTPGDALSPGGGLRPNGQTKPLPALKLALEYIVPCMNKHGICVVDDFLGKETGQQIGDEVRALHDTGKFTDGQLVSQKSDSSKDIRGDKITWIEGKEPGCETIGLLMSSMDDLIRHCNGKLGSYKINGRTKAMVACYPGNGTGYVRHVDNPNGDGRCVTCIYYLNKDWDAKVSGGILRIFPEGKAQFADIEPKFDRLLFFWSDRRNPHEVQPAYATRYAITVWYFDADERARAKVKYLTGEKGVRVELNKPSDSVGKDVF

| SMILES | IC50 |
| --- | --- |
| O=C(O)CNC(=O)c1c(O)c2c(n(Cc3ccc(C(F)(F)F)cc3)c1=O)NCCC2 [Example 78, 2-(4-Hydroxy-2-oxo-1-(4-(trifluoromethyl)benzyl)-1,2,5,6,7,8-hexahydro-1,8-naphthyridine-3-carboxamido)acetic acid] | 70 nM |
| O=C(O)CNC(=O)c1c(O)c2c(n(Cc3ccc(C(F)(F)F)cc3)c1=O)CN(Cc1ccccc1)CC2 [Example 80, 2-(7-Benzyl-4-hydroxy-2-oxo-1-(4-(trifluoromethyl)benzyl)-1,2,5,6,7,8-hexahydro-1,7-naphthyridine-3-carboxamido)acetic acid] | 32 nM |
| CN1CCc2c(c(O)c(C(=O)NCC(=O)O)c(=O)n2Cc2ccc(C(F)(F)F)cc2)C1 [Example 81, 2-(4-Hydroxy-6-methyl-2-oxo-1-(4-(trifluoromethyl)benzyl)-1,2,5,6,7,8-hexahydro-1,6-naphthyridine-3-carboxamido)acetic acid] | 46.1 nM |
| O=C(O)CNC(=O)c1c(O)c2c(n(Cc3ccc(C(F)(F)F)cc3)c1=O)C1CCC2C1 (centres unmarked) [Example 83, 2-(-4-hydroxy-2-oxo-1-(4-(trifluoromethyl)benzyl)-1,2,5,6,7,8-hexahydro-5,8-methanoquinoline-3-carboxamide)acetic acid] | 46 nM |
| O=C(O)CNC(=O)c1c(O)c2c(n(Cc3nc(-c4ccccc4)cs3)c1=O)C1CCC2C1 (centres unmarked) [Example 85, 2-(-4-hydroxy-2-oxo-1-((4-phenylthiaozl-2-yl)methyl)-1,2,5,6,7,8-hexahydro-5,8-methanoquinoline-3-carboxamido)acetic acid] | 61 nM |

The next compounds have a lower IC50 than those just listed; values first:

| IC50 | SMILES |
| --- | --- |
| 19 nM | CN1Cc2c(c(O)c(C(=O)NCC(=O)O)c(=O)n2Cc2ccc(S(C)(=O)=O)cc2)CC1=O [Example 71, 2-(4-hydroxy-7-methyl-1-(4-(methylsulfonyl)benzyl)-2,6-dioxo-1,2,5,6,7,8-hexahydro-1,7-naphthyridine-3-carboxamido)acetic acid] |
| 28.7 nM | CN1Cc2c(c(O)c(C(=O)NCC(=O)O)c(=O)n2Cc2ccc(F)cc2F)CC1=O [Example 72, 2-(1-(2,4-difluorobenzyl)-4-hydroxy-7-methyl-2,6-dioxo-1,2,5,6,7,8-hexahydro-1,7-naphthyridine-3-carboxamido)acetic acid] |
| 17.2 nM | CN1Cc2c(c(O)c(C(=O)NCC(=O)O)c(=O)n2Cc2cccc(C#N)c2)CC1=O [Example 73, 2-(1-(3-cyanobenzyl)-4-hydroxy-7-methyl-2,6-dioxo-1,2,5,6,7,8-hexahydro-1,7-naphthyridine-3-carboxamido)acetic acid] |
| 7.5 nM | CN1Cc2c(c(O)c(C(=O)NCC(=O)O)c(=O)n2Cc2ccc(C#N)cc2)CC1=O [Example 74, 2-(1-(4-cyanobenzyl)-4-hydroxy-7-methyl-2,6-dioxo-1,2,5,6,7,8-hexahydro-1,7-naphthyridine-3-carboxamido)acetic acid] |
| 10.6 nM | CN1Cc2c(c(O)c(C(=O)NCC(=O)O)c(=O)n2Cc2ccccc2Cl)CC1=O [Example 76, 2-(1-(2-chlorobenzyl)-4-hydroxy-7-methyl-2,6-dioxo-1,2,5,6,7,8-hexahydro-1,7-naphthyridine-3-carboxamido)acetic acid] |
| 19 nM | O=C(O)CNC(=O)c1c(O)c2c(n(Cc3cnc(-c4ccccc4)s3)c1=O)C1CCC2C1 (centres unmarked) [Example 84, 2-(-4-hydroxy-2-oxo-1-((2-phenylthiazol-5-yl)methyl)-1,2,5,6,7,8-hexahydro-5,8-methanoquinoline-3-carboxamido)acetic acid] |
